What is called viability is a read-out of living cells in per cent, often relative to untreated cells.

From paper PMC12242667, “Attenuation of 6‑OHDA-Induced Neurotoxicity by 1,2,3-Triazole-Based Sulfonamides through SIRT1 Activity” (ACS Omega, 2025) come the findings set out here.

Like-named read-outs stand apart in the source and are kept apart here.

Series [1] concerns the target T1, SIRT1 (Homo sapiens, UniProt Q96EB6).
T1 construct: endogenous in cells; host or cells: SH-SY5Y
T1 sequence (Q96EB6 1-747): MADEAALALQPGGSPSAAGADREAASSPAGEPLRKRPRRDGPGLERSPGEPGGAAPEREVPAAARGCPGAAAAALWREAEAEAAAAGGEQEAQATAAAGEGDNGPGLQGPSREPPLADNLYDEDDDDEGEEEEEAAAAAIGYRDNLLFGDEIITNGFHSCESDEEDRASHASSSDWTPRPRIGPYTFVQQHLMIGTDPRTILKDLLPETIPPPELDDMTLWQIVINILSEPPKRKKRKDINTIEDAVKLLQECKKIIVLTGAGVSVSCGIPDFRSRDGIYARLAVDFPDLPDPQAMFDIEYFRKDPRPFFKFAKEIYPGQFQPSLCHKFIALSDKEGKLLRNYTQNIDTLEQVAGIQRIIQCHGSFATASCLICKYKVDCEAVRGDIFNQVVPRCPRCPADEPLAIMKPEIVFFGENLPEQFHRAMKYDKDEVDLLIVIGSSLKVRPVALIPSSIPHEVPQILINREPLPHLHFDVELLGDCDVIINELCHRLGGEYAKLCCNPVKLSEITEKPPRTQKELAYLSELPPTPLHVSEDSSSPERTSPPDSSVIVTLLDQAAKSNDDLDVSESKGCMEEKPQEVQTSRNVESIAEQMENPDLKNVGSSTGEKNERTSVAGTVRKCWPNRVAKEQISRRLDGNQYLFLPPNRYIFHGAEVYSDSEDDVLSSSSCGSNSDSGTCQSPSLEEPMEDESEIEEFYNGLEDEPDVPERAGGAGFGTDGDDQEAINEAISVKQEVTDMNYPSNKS
Put plainly: SIRT1 deacetylase activity in SH-SY5Y cell lysate. Format: cell-based. Conditions: 24 h, read-out: SIRT1 activity. The method, then: SH-SY5Y neuronal cells at 1.0 × 10^5 cells/mL were seeded into 6-well plates for 24 h. Then, the cells were pretreated with 5 μM 1,2,3-triazole-based sulfonamide derivatives for 3 h before neurotoxicity was induced with 50 μM 6-OHDA for another 24 h. The cell culture medium was rinsed off with cold 1X PBS. The cells were incubated at 4 °C with 1X RIPA buffer containing a protease inhibitor for 20 min before being harvested using a cell scraper, followed by centrifugation at 12,000 rpm for 20 min. Protein concentrations were measured using the Bradford protein assay, and SIRT1 activity in the cells was determined following the manufacturer’s instructions. The increase in SIRT1 enzyme activity was measured by fluorescence intensity at an excitation wavelength of 340 nm and an emission wavelength of 445 nm. SIRT1 enzyme activity was statistically analyzed as a percentage relative to the control group.

The nature of series [2]: Cytotoxicity of 6-OHDA against SH-SY5Y cells, MTT assay. Format: cell-based. Conditions: human, SH-SY5Y neuronal cells, relative to control, read-out: cell viability; for viability at 24 h: 6-OHDA. As for the experimental part: Prior to investigations, 1.0 × 10^5 SH-SY5Y neuronal cells/mL were seeded into 96-well plates for 24 h. To determine the optimal concentration of 6-OHDA for inducing neurotoxicity, cells were seeded into 96-well plates for 24 h and treated with various concentrations of 6-OHDA ranging from 25 to 125 μM for another 24 h. For the evaluation of the cytotoxicity of 1,2,3-triazole-based sulfonamide derivatives on SH-SY5Y neuronal cells, the cells were treated with various concentrations (0.1–10 μM) of 1,2,3-triazole-based sulfonamide derivatives for 24 h.^29 To assess the neuroprotective activity of 1,2,3-triazole-based sulfonamide derivatives, the cells were pretreated with various concentrations (0.1–10 μM) of 1,2,3-triazole-based sulfonamide derivatives for 3 h before being treated with 50 μM of 6-OHDA for another 24 h. Cell viability was assessed by incubating with 5 mg/mL of MTT reagent for 3 h at 37 °C, followed by absorbance measurement at 570 nm using a microplate reader (Thermo Fisher Scientific Inc., MA, USA). The viability of SH-SY5Y cells at each concentration was analyzed as a percentage relative to the control group.

The test system of series [3] is 6-OHDA-induced SH-SY5Y neuronal cells. Put plainly: Cellular leakage of LDH enzyme. The series is classed as cell-based, Human. Conditions: 50 μM 6-OHDA alone, 24 h, percentage of control. As for the experimental part: Leakage of LDH, an enzyme commonly used as an assessment factor to evaluate cellular damage, was measured to determine the protective ability of the compounds against 6-OHDA-induced neuronal damage. 1.0 × 10^5 cells/mL of SH-SY5Y neuronal cells were seeded into 6-well plates for 24 h. The cells were pretreated with 5 μM of 1,2,3-triazole-based sulfonamide derivatives for 3 h before being treated with 50 μM of 6-OHDA for 24 h. The cell culture medium of SH-SY5Y cells was collected, and LDH leakage was evaluated using the LDH assay kit. In the presence of LDH, lactate is converted into pyruvate, resulting in an elevated level of NADH production, which is determined via the change in absorbance at 450 nm. LDH activity was calculated according to the manufacturer’s instructions and shown as a percentage of the control group.

The test system is the same in series [4]. Put plainly: Intracellular ROS production, H2DCFDA assay. The series is classed as cell-based. Conditions: Homo sapiens, 50 μM 6-OHDA alone, 24 h, relative to control. The method, then: ROS production in SH-SY5Y neuronal cells was investigated using H2DCFDA. 1.0 × 10^5 cells/mL of SH-SY5Y neuronal cells were seeded into 96-well plates for 24 h, and 5 μM of selected 1,2,3-triazole-based sulfonamide derivatives were pretreated for 3 h. Then, neurotoxicity of the cells were induced with 50 μM of 6-OHDA for another 24 h. The neuronal cells with 10 μM H2DCFDA were incubated for 30 min at 37 °C in the dark. The emission and excitation wavelengths of 528 nm and 485 nm, respectively, were measured by using a microplate reader. The measured ROS production was calculated as a percentage relative to the control group.

On to `NCCc1cc(O)c(O)cc1O` [6-OHDA, 6-hydroxydopamine], for which the activity at 50 µM in series [1] is 78.8 ± 3.74%; in series [4], 119 ± 4.75%. Moreover, in series [2] (6-OHDA 25 μM (first of five concentrations 25–125 μM)), the viability at 24 h, 25 μM amounted to 90 ± 2.81%. For the same compound, the viability at 24 h, 125 μM in series [2] (6-OHDA 125 μM (fifth of five concentrations 25–125 μM)) was 54.4 ± 3.06%. Moreover, the figures for the viability at 24 h in series [2] (fourth of five concentrations 25–125 μM), in series [2] (second of five concentrations 25–125 μM) and in series [2] (third of five concentrations 25–125 μM) were 56.2 ± 2.37%, 78.5 ± 2.73% and 61.6 ± 2.44%, respectively. The LDH activity in series [3] was determined as 132.4 ± 5.089%.
